Patent publication US20200323954A1, “METHODS AND COMPOSITIONS FOR REDUCING GUT ISCHEMIA/REPERFUSION-INDUCED INJURY” (PanTheryx, Inc., priority 2019, published 2020)
Entries after “also recorded” stand apart in the source; their conditions may differ. Marks after values point to notes of the source that are not given here.

Legend:
AGS cells = experiment: Lactate dehydrogenase (LDH) cell damage assay after H/R; type: cell-based, human
Procedure: (§1) Hypoxia (Ischemia)/Normoxia (Reperfusion) (H/R) protocols for in vitro studies: For all experiments AGS, Caco-2 and RIE1 cells were set up in plates as described in specific methods. Cells were used at 70-80% confluence for cell injury/death assessment and as confluent monolayers for permeability studies. To induce “ischemia”, cells were placed in a hypoxic incubator (2% 02) for specified time and to mimic reperfusion, cells were placed back in a normoxic (21% 02) incubator for specified time. All treatments were duplicated in a second set of identical plates under normoxic conditions throughout the same test period as controls. To determine optimum conditions for the in vitro studies, pilot studies were performed.
Lactate dehydrogenase (LDH) assay: Cell damage was assessed using the activity of LDH released into the cell culture medium. LDH is a cytosolic enzyme present in many different cell types. Plasma membrane damage releases LDH into the cell culture media. At the end of the H/R period, supernatant was collected from all wells and LDH activity determined using a Pierce LDH Cytotoxicity Assay Kit (Thermo Fisher Scientific, Hemel Hempstead, UK) following manufacturer's instructions. Results are expressed as LDH activity and presented as mean+/−SEM of six wells.
Example 1A: Dose response study: To examine the effect of PSTI on H/R-induced cell injury in vitro, cells were set up in 96 well plates and pre-incubated in SFM containing glucose, with or without 5, 10 or 15 μg/ml PSTI for 1 hour (i.e. PSTI pre-treatment). These concentrations of PSTI were chosen based on previous studies examining cell migration (Marchbank et al., 2007, Am J Pathol 171(5):1462-73). The medium was replaced with SFM without glucose and placed in the hypoxia incubator for 4 hours. […]
Example 1B: Efficacy of PSTI given pre-, during- or post-hypoxic period. […] Cell Viability (MTT assay) and cell damage (LDH assay) were assessed. […] Cell Viability (MTT assay) and cell damage (LDH assay) were assessed.

[1] = test system: polarised Caco-2 monolayers; experiment: Permeation of horseradish peroxidase (HRP) through the monolayer after H/R; type: cell-based, human
Procedure: as §1
(§2) The effect of […] PSTI pre-treatment on transepithelial permeability induced by 1 hour of hypoxia followed by 24 hours of normoxia was examined using Caco-2, human polarizing colonic adenocarcinoma cells utilizing two different previously published methods according to Davison et al., 2016, Am J Nutr 2016; 104:526-536. One method determined change in transepithelial electrical resistance (TEER) and the other method analyzed the passage of horseradish peroxidase (HRP) across the epithelial layer. HRP (type II) is a non-digestible macromolecular protein (MW=44 kD) and has previously been used as a tracer in evaluation of epithelial permeability. Each monolayer had TEER and HRP permeability assessed at baseline, at the end of 1 h incubation in an hypoxic (ischemic) chamber and at the end of a 24 h reoxygenation (reperfusion) period. Measurements were taken in triplicate from 4 wells per treatment. Results are expressed as mean+/−SEM.

bladder cancer = conditions: cited from earlier work
[2] = test system: polarised Caco-2 monolayers; experiment: Transepithelial electrical resistance (TEER) after H/R; type: cell-based, human
Procedure: as §1, §2

50% SI (clamped region) = experiment: Gut ischemia-reperfusion (I/R) model, clamped 50% SI site
RIE1 cells = experiment: Apoptotic and protective pathways after H/R in RIE1 cells; type: cell-based, rat; conditions: RIE1, Hyp 1 h/Rep 24 h + PSTI, mean +/− SEM
Procedure: as §1

[3] = test system: lipopolysaccharide-stimulated dendritic cells; conditions: lipopolysaccharide-stimulated dendritic cells in vitro; cited from earlier work
[4] = PSTI added to the medium prior to I/R
[5] = 50% SI clamped, PSTI 20 μg/kg ip, vs I/R without PSTI

- truncation of the increase in HRP permeability ([1]; Caco-2, end of the 1 h hypoxic period): about 54%
- truncation of the increase in HRP permeability ([1]; Caco-2, final H/R time point (1 h hypoxia + 24 h)): 37%
- truncation of the 300% increase in transepithelial permeability (horse radish peroxidase translocation) ([1]; Caco-2 monolayers, hypoxia/reperfusion 1 h+24 h, p<0.01): 50%
- HRP permeation under normoxic conditions ([1]; normoxia): no effect on TEER or HRP permeation
Substance: pancreatic secretory trypsin inhibitor (DSLGREAKCYNELNGCTKIYDPVCGTDGNTYPNECVLCFENRKRQTSILIQKSGPC; listed as Homo sapiens) [PSTI]
- reduction of the rise in LDH (AGS cells; AGS, 4 h hypoxia + 24 h reperfusion, PSTI 10 μg/ml 1 h before hypoxia): 37%±2%
- effect on cell damage (LDH activity) after H/R vs serum free medium (AGS cells; PSTI added before H/R): significantly decreased cell damage
- LDH of cells not exposed to H/R (AGS cells; normoxia, PSTI 10 microgram per ml): no change in viability or LDH; also recorded: no change in % LDH levels
- I/R-induced change in HRP permeability, medium alone vs PSTI [1, 4]: significantly greater increases in permeability compared to those that had PSTI added
- migration and invasion (bladder cancer): causes autocrine-mediated migration and invasion in bladder cancer
- phosphorylation of signalling proteins (bladder cancer): phosphorylates the EGF receptor, Akt2 and Akt3, and ERK1 and ERK2
- reduction of the fall in TEER caused by H/R ([2]; Caco-2, 1 h hypoxia + 24 h normoxia, PSTI pre-treatment): about 50%
- TEER under normoxic conditions ([2]; Caco-2, normoxia): no effect on TEER or HRP permeation; also recorded: no effect on transepithelial resistance (TEER)
- H/R-induced change in TEER permeability, medium alone vs PSTI [2, 4]: significantly greater increases in permeability compared to those that had PSTI added
- truncation of the damaging effect of hypoxia-normoxia on epithelial integrity ([2]; TEER and HRP permeation, polarized monolayers): about 65%
- ICAM1 levels (50% SI (clamped region); 50% SI clamped (gut), PSTI 20 μg/kg ip, vs I/R without PSTI): did not affect increased ICAM1; also recorded: no effect on these results; also recorded: did not affect ICAM1 levels
- histological damage of small intestine (50% SI (clamped region); 50% SI clamped, PSTI 20 μg/kg ip 1 h before clamping, vs I/R without PSTI): much less extensive damage; also recorded: protective effects; also recorded: significantly reduced histological scoring
- Baxα levels (50% SI (clamped region); [5]): truncated the increase; also recorded: significantly decreased the damaging pro-apoptotic Baxα activity
- Bcl2 levels (50% SI (clamped region); [5]): maintained levels; also recorded: significantly increased the protective anti-apoptotic Bcl2 activity
- Caspase 3 levels (50% SI (clamped region); [5]): virtually eliminated; also recorded: significantly decreased Caspase 3 activity
- Caspase 9 levels (50% SI (clamped region); [5]): virtually eliminated; also recorded: significantly decreased Caspase 9 activity
- Claudin1 levels (50% SI (clamped region); [5]): virtually completely prevented; also recorded: significantly increased the protective Claudin1
- HIF1α levels (50% SI (clamped region); [5]): further increasing HIF1α and VEGF; also recorded: significantly increased the protective HIF1α
- MDA levels (50% SI (clamped region); [5]): this increase was truncated; also recorded: significantly reduced MDA levels
- MPO levels (50% SI (clamped region); [5]): significantly reducing these changes; also recorded: significantly reduced MPO levels
- VEGF levels (50% SI (clamped region); [5]): further increasing HIF1α and VEGF; also recorded: significantly increased the protective VEGF
- ZO1 levels (50% SI (clamped region); [5]): virtually completely prevented; also recorded: significantly increased the protective ZO1
- hSP70 levels (50% SI (clamped region); [5]): Additional increases in hSP70 expression; also recorded: significantly increased the protective hSP70
- reduction of all injury markers (50% SI (clamped region); gut, lung, kidney (necrosis, MDA, MPO), PSTI 20 μg/kg, p<0.01): 50-80%
- histological and biochemical markers of injury in gut, lung and kidney (50% SI (clamped region); pre-treatment with PSTI): significantly reduced histological and biochemical markers of injury
- Baxα (RIE1 cells): 97.6 +/− 0.01 ** $ % normoxic
- Bcl2 (RIE1 cells): 49.3 +/− 1.91 ** $$ % normoxic
- Caspase 3 (RIE1 cells): 112.3 +/− 2.70 * % normoxic
- Caspase 9 (RIE1 cells): 120.6 +/− 17.02 * $ % normoxic
- Claudin 1 (RIE1 cells): 75.6 +/− 2.1 ** $$ % normoxic
- HIF1α (RIE1 cells): 144.1 +/− 0.17 ** $$ % normoxic
- ICAM1 (RIE1 cells): 115.4 +/− 1.09 ** % normoxic
- VEGF (RIE1 cells): 121.8 +/− 2.53 ** $$ % normoxic
- ZO1 (RIE1 cells): 83.6 +/− 0.69 * $ % normoxic
- hSP70 (RIE1 cells): 122.9 +/− 0.85 ** % normoxic
- cytokine release of TNFα and IL-12 [3]: reduced cytokine release of TNFα and IL-12
